Experiments:
HCV NS5B = biological target: T1, HCV NS5B (Hepatitis C virus genotype 1b, UniProt Q9WMX2); experiment: HCV NS5B RdRp enzyme assay (standard / modified); type: biochemical; details: HCV RdRp genotype 1b enzyme; read-out: IC50
T1 construct: The protein was expressed with an 18 amino acid C-terminal truncation to enhance the solubility; made in house; host or cells: E. coli BL21 (DE3)
Summary of the method: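 SPA detection of 3H-UTP (0.29 μM) incorporation by C-terminally truncated (18 aa) genotype 1b NS5B from E. coli, on polyA/biotin-oligo-dT12 at 30° C, pH 7.5 Hepes, 2% DMSO. Modified format: 14 nM enzyme, 0.2 nM template, 20 nM primer prebound to beads, 4 h; standard: 28 nM, 6 nM, 180 nM free primer, 60 min. Seven-point IC50 fit.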

HCV replicon cells = experiment: HCV replicon FRET / luciferase assay; type: cell-based; details: Hepatitis C virus; HCV replicon cells, FRET or luciferase readout; read-out: EC50
Summary of the method: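 Percent activity is background-subtracted signal relative to untreated cell wells, with background taken from maximal protease-inhibitor wells. Cytotoxicity is Alamar blue fluorescence relative to controls. Replicon inhibition was read by NS3 FRET peptide cleavage (340/490 nm) or luciferase.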

T1 sequence (Q9WMX2 2420-2992): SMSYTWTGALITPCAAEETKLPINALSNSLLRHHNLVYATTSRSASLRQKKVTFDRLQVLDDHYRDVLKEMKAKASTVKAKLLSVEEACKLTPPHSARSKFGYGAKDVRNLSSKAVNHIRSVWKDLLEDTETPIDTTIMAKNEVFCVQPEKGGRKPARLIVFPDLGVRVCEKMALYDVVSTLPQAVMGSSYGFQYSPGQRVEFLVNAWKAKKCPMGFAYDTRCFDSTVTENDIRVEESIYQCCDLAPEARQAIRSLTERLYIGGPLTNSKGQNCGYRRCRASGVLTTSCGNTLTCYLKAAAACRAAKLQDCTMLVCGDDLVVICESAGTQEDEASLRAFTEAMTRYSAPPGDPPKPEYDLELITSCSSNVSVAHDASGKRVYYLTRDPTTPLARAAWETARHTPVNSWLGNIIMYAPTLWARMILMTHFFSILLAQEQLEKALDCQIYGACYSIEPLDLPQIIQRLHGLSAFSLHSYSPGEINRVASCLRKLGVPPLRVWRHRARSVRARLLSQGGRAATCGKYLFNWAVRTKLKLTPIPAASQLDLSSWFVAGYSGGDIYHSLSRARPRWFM

Structure (SMILES) | IC50 (HCV NS5B) [nM] | EC50 (HCV replicon cells) [nM]
COc1ccc2c(c1)C=C(c1ocnc1C(=O)N1CCOCC1)Cn1c-2c(C2CCCCC2)c2ccc(C(=O)OC(C)(C)C)cc21 | > 40 | > 40
COc1ccc2c(c1)C=C(c1ocnc1C(=O)N1CCOCC1)Cn1c-2c(C2CCCCC2)c2ccc(C(=O)O)cc21 | 1 to 500 | 1 to 500
COc1ccc2c(c1)C=C(c1ocnc1C(=O)N1CCOCC1)Cn1c-2c(C2CCCCC2)c2ccc(C(=O)NS(=O)(=O)N(C)C)cc21 | 1 to 500 | 1 to 500
COc1ccc2c(c1)C=C(c1ocnc1C(=O)N1CCOCC1)Cn1c-2c(C2CCCCC2)c2ccc(C(=O)NS(=O)(=O)C(C)C)cc21 | 1 to 500 | 1 to 500
COC(=O)c1c(C)nn(C)c1C1=Cc2cc(OC)ccc2-c2c(C3CCCCC3)c3ccc(C(=O)O)cc3n2C1 | 1 to 500 | 1 to 500
COc1ccc2c(c1)C=C(c1c(C(=O)O)c(C)nn1C)Cn1c-2c(C2CCCCC2)c2ccc(C(=O)NS(=O)(=O)CC(C)C)cc21 | 1 to 500 | > 40
COc1ccc2c(c1)C=C(c1c(C(=O)N3CCOCC3)c(C)nn1C)Cn1c-2c(C2CCCCC2)c2ccc(C(=O)NS(=O)(=O)N(C)C)cc21 | 1 to 500 | 1 to 500
COc1ccc2c(c1)C=C(c1c(C(=O)N3CCOCC3)cnn1C1CC1)Cn1c-2c(C2CCCCC2)c2ccc(C(=O)NS(=O)(=O)C(C)C)cc21 | 1 to 500 | 1 to 500
COc1ccc2c(c1)C=C(c1c(C(=O)O)c(C)nn1C)Cn1c-2c(C2CCCCC2)c2ccc(C(=O)NS(=O)(=O)C(C)C)cc21 | 1 to 500 | > 500
COc1ccc2c(c1)C=C(c1c(C(=O)N3CCOCC3)c(C)nn1C)Cn1c-2c(C2CCCCC2)c2ccc(C(=O)NS(=O)(=O)CC(C)C)cc21 | 1 to 500 | 1 to 500
COc1ccc2c(c1)C=C(c1c(C(=O)N3CCOCC3)c(C)nn1C)Cn1c-2c(C2CCCCC2)c2ccc(C(=O)NS(=O)(=O)C(C)C)cc21 | 1 to 500 | 1 to 500
COc1ccc2c(c1)C=C(c1c(C(=O)O)ccn1C(C)C)Cn1c-2c(C2CCCCC2)c2ccc(C(=O)NS(=O)(=O)C(C)C)cc21 | 1 to 500 | > 500
CCCN1CCN(C(=O)c2ccn(C(C)C)c2C2=Cc3cc(OC)ccc3-c3c(C4CCCCC4)c4ccc(C(=O)NS(=O)(=O)C(C)C)cc4n3C2)CC1 | 1 to 500 | 1 to 500
COc1ccc2c(c1)C=C(c1c(C(=O)N3C[C@@H](C)O[C@@H](C)C3)ccn1C(C)C)Cn1c-2c(C2CCCCC2)c2ccc(C(=O)NS(=O)(=O)C(C)C)cc21 | 1 to 500 | 1 to 500
COc1ccc2c(c1)C=C(c1c(C(=O)N3CCOCC3)ccn1C(C)C)Cn1c-2c(C2CCCCC2)c2ccc(C(=O)NS(=O)(=O)C(C)C)cc21 | 1 to 500 | 1 to 500
CCOC(=O)c1ccoc1C1=Cc2cc(OC)ccc2-c2c(C3CCCCC3)c3ccc(C(=O)NS(=O)(=O)C(C)C)cc3n2C1 | 1 to 500 | > 500
CCOC(=O)c1cc[nH]c1C1=Cc2cc(OC)ccc2-c2c(C3CCCCC3)c3ccc(C(=O)NS(=O)(=O)C(C)C)cc3n2C1 | 1 to 500 | 1 to 500
COc1ccc2c(c1)C=C(c1c(C(=O)N3CCOCC3)cnn1CC(F)(F)F)Cn1c-2c(C2CCCCC2)c2ccc(C(=O)NS(=O)(=O)C(C)C)cc21 | 1 to 500 | 1 to 500
COc1ccc2c(c1)C=C(c1c(C(=O)N3C[C@@H](C)O[C@@H](C)C3)cnn1CC(F)(F)F)Cn1c-2c(C2CCCCC2)c2ccc(C(=O)NS(=O)(=O)C(C)C)cc21 | 1 to 500 | 1 to 500

Structure (SMILES) | IC50 (HCV NS5B) [nM] | EC50 (HCV replicon cells) [nM]
COC[C@@H]1CN(C(=O)c2cnn(CC(F)(F)F)c2C2=Cc3cc(OC)ccc3-c3c(C4CCCCC4)c4ccc(C(=O)NS(=O)(=O)C(C)C)cc4n3C2)CCO1 | 1 to 500 | 1 to 500
CCN1C[C@@H]2C[C@H]1CN2C(=O)c1cnn(CC(F)(F)F)c1C1=Cc2cc(OC)ccc2-c2c(C3CCCCC3)c3ccc(C(=O)NS(=O)(=O)C(C)C)cc3n2C1 | 1 to 500 | 1 to 500
COc1ccc2c(c1)C=C(c1c(C(=O)N3C[C@@H](C)N(C)[C@@H](C)C3)cnn1CC(F)(F)F)Cn1c-2c(C2CCCCC2)c2ccc(C(=O)NS(=O)(=O)C(C)C)cc21 | 1 to 500 | 1 to 500
COc1ccc2c(c1)C=C(c1c(C(=O)N3C[C@@H](C)O[C@@H](C)C3)c(C)nn1C)Cn1c-2c(C2CCCCC2)c2ccc(C(=O)NS(=O)(=O)C(C)C)cc21 | 1 to 500 | 1 to 500
COc1ccc2c(c1)C=C(c1c(C(=O)N3CCOCC3)c(C(F)(F)F)nn1C)Cn1c-2c(C2CCCCC2)c2ccc(C(=O)NS(=O)(=O)C(C)C)cc21 | < 20 | 1 to 500
COc1ccc2c(c1)C=C(c1c(C(=O)N3C[C@@H](C)O[C@@H](C)C3)c(C(F)(F)F)nn1C)Cn1c-2c(C2CCCCC2)c2ccc(C(=O)NS(=O)(=O)C(C)C)cc21 | < 20 | 1 to 500
COc1ccc2c(c1)C=C(c1c(C(=O)N3C[C@@H](C)N(C)[C@@H](C)C3)c(C(F)(F)F)nn1C)Cn1c-2c(C2CCCCC2)c2ccc(C(=O)NS(=O)(=O)C(C)C)cc21 | 1 to 500 | 1 to 500
COc1ccc2c(c1)C=C(c1occc1C(=O)N1CCOCC1)Cn1c-2c(C2CCCCC2)c2ccc(C(=O)NS(=O)(=O)C(C)C)cc21 | 1 to 500 | 1 to 500
COc1ccc2c(c1)C=C(c1c(C(=O)N3C[C@@H](C)O[C@@H](C)C3)cnn1CC(C)C)Cn1c-2c(C2CCCCC2)c2ccc(C(=O)NS(=O)(=O)C(C)C)cc21 | 1 to 500 | 1 to 500
COc1ccc2c(c1)C=C(c1c(C(=O)N3C[C@@H](C)O[C@@H](C)C3)cnn1C(C)(C)C)Cn1c-2c(C2CCCCC2)c2ccc(C(=O)NS(=O)(=O)C(C)C)cc21 | 1 to 500 | 1 to 500
COc1ccc2c(c1)C=C(c1c(C(=O)N3C[C@@H](C)N(C)[C@@H](C)C3)cnn1C(C)(C)C)Cn1c-2c(C2CCCCC2)c2ccc(C(=O)NS(=O)(=O)C(C)C)cc21 | 1 to 500 | 1 to 500
COc1ccc2c(c1)C=C(c1c(C(=O)N3CC4CCC(C3)O4)cnn1C)Cn1c-2c(C2CCCCC2)c2ccc(C(=O)NS(=O)(=O)C(C)C)cc21 | < 20 | 1 to 500
COc1ccc2c(c1)C=C(c1c(C(=O)N3CC4CCC(C3)O4)c(C(F)(F)F)nn1C)Cn1c-2c(C2CCCCC2)c2ccc(C(=O)NS(=O)(=O)C(C)C)cc21 | 1 to 500 | 1 to 500
COC[C@@H]1CN(C(=O)c2c(C(F)(F)F)nn(C)c2C2=Cc3cc(OC)ccc3-c3c(C4CCCCC4)c4ccc(C(=O)NS(=O)(=O)C(C)C)cc4n3C2)CCO1 | 1 to 500 | 1 to 500
COc1ccc2c(c1)C=C(c1c(C(=O)N3CCN(C)CC3)c(C(F)(F)F)nn1C)Cn1c-2c(C2CCCCC2)c2ccc(C(=O)NS(=O)(=O)C(C)C)cc21 | 1 to 500 | 1 to 500
CCN1C[C@@H]2C[C@H]1CN2C(=O)c1c(C(F)(F)F)nn(C)c1C1=Cc2cc(OC)ccc2-c2c(C3CCCCC3)c3ccc(C(=O)NS(=O)(=O)C(C)C)cc3n2C1 | 1 to 500 | 1 to 500
COc1ccc2c(c1)C=C(c1c(C(=O)N3CCOCC3)c(C)nn1C(C)C)Cn1c-2c(C2CCCCC2)c2ccc(C(=O)NS(=O)(=O)C(C)C)cc21 | 1 to 500 | 1 to 500
COc1ccc2c(c1)C=C(c1c(C(=O)N3C[C@@H](C)O[C@@H](C)C3)c(C)nn1C(C)C)Cn1c-2c(C2CCCCC2)c2ccc(C(=O)NS(=O)(=O)C(C)C)cc21 | 1 to 500 | 1 to 500

— US8143243B2, “Compounds for the treatment of hepatitis C” (Bristol-Myers Squibb Company, priority 2007, dated 2012)
